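Following 48 hours of exposure in 96-well plates, responses at five concentrations were used to interpolate endpoints linearly. TGI denotes the concentration required for complete inhibition of growth.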
What was measured:
Assay in all cases: NCI-60 cell line screen, 48 h
ACHN renal = tested on: ACHN renal
HT29 colon = tested on: HT29 colon
UO-31 renal = tested on: UO-31 renal
K-562 leukemia = tested on: K-562 leukemia
COLO 205 colon = tested on: COLO 205 colon
HCT-15 colon = tested on: HCT-15 colon
SK-MEL-2 melanoma = tested on: SK-MEL-2 melanoma
UACC-257 melanoma = tested on: UACC-257 melanoma
HOP-92 NSCLC = tested on: HOP-92 NSCLC
NCI/ADR-RES ovarian = tested on: NCI/ADR-RES ovarian
OVCAR-3 ovarian = tested on: OVCAR-3 ovarian
HCT-116 colon = tested on: HCT-116 colon
HCC-2998 colon = tested on: HCC-2998 colon
NCI-H226 lung = tested on: NCI-H226 lung
KM12 colon = tested on: KM12 colon
SNB-75 CNS = tested on: SNB-75 CNS
UACC-62 melanoma = tested on: UACC-62 melanoma
A549 NSCLC = tested on: A549 NSCLC
DU-145 prostate = tested on: DU-145 prostate
MCF7 breast = tested on: MCF7 breast
SW-620 colon = tested on: SW-620 colon
NCI-H460 lung = tested on: NCI-H460 lung
U251 CNS = tested on: U251 CNS
BT-549 breast = tested on: BT-549 breast
SK-OV-3 ovarian = tested on: SK-OV-3 ovarian
CAKI-1 renal = tested on: CAKI-1 renal
M14 melanoma = tested on: M14 melanoma
TK-10 renal = tested on: TK-10 renal
RPMI-8226 leukemia = tested on: RPMI-8226 leukemia
HOP-62 NSCLC = tested on: HOP-62 NSCLC
A498 renal = tested on: A498 renal
HL-60(TB) leukemia = tested on: HL-60(TB) leukemia
IGROV1 ovarian = tested on: IGROV1 ovarian
SK-MEL-28 melanoma = tested on: SK-MEL-28 melanoma
LOX IMVI melanoma = tested on: LOX IMVI melanoma
SF-268 CNS = tested on: SF-268 CNS
OVCAR-8 ovarian = tested on: OVCAR-8 ovarian
786-0 renal = tested on: 786-0 renal
MDA-N = tested on: MDA-N
OVCAR-5 ovarian = tested on: OVCAR-5 ovarian
MDA-MB-435 = tested on: MDA-MB-435
NCI-H522 lung = tested on: NCI-H522 lung
PC-3 prostate = tested on: PC-3 prostate
SNB-19 CNS = tested on: SNB-19 CNS
OVCAR-4 ovarian = tested on: OVCAR-4 ovarian
MDA-MB-231 breast = tested on: MDA-MB-231 breast
SN12C renal = tested on: SN12C renal
T-47D breast = tested on: T-47D breast
SR leukemia = tested on: SR leukemia
HS 578T breast = tested on: HS 578T breast
SK-MEL-5 melanoma = tested on: SK-MEL-5 melanoma
SF-539 CNS = tested on: SF-539 CNS
EKVX NSCLC = tested on: EKVX NSCLC
MOLT-4 leukemia = tested on: MOLT-4 leukemia
RXF 393 renal = tested on: RXF 393 renal
CCRF-CEM leukemia = tested on: CCRF-CEM leukemia
MALME-3M melanoma = tested on: MALME-3M melanoma
NCI-H23 lung = tested on: NCI-H23 lung
SF-295 CNS = tested on: SF-295 CNS

Measured: TGI

C[Si](C)(C)OC1c2[nH]c3ccccc3c2CN2C(=O)CCC12 (stereo unspecified)
> 100 µM: ACHN renal | HT29 colon | UO-31 renal | K-562 leukemia | COLO 205 colon | HCT-15 colon | SK-MEL-2 melanoma | UACC-257 melanoma | HOP-92 NSCLC | NCI/ADR-RES ovarian | OVCAR-3 ovarian | HCT-116 colon | HCC-2998 colon | NCI-H226 lung | KM12 colon | SNB-75 CNS | UACC-62 melanoma | A549 NSCLC | DU-145 prostate | MCF7 breast | SW-620 colon | NCI-H460 lung | U251 CNS | BT-549 breast | SK-OV-3 ovarian | CAKI-1 renal | M14 melanoma | TK-10 renal | RPMI-8226 leukemia | HOP-62 NSCLC | A498 renal | HL-60(TB) leukemia | IGROV1 ovarian | SK-MEL-28 melanoma | LOX IMVI melanoma | SF-268 CNS | OVCAR-8 ovarian | 786-0 renal | MDA-N | OVCAR-5 ovarian | MDA-MB-435 | NCI-H522 lung | PC-3 prostate | SNB-19 CNS | OVCAR-4 ovarian | MDA-MB-231 breast | SN12C renal | T-47D breast | SR leukemia | HS 578T breast | SK-MEL-5 melanoma | SF-539 CNS | EKVX NSCLC | MOLT-4 leukemia

O=C1c2ccccc2-c2ccc(N=[N+]([O-])c3ccc4c(c3)C(=O)c3ccccc3-4)cc21
> 100 µM: ACHN renal | HT29 colon | UO-31 renal | K-562 leukemia | COLO 205 colon | HCT-15 colon | SK-MEL-2 melanoma | UACC-257 melanoma | HOP-92 NSCLC | NCI/ADR-RES ovarian | OVCAR-3 ovarian | HCT-116 colon | HCC-2998 colon | NCI-H226 lung | KM12 colon | SNB-75 CNS | UACC-62 melanoma | A549 NSCLC | DU-145 prostate | MCF7 breast | SW-620 colon | NCI-H460 lung | U251 CNS | BT-549 breast | RXF 393 renal | SK-OV-3 ovarian | CAKI-1 renal | M14 melanoma | TK-10 renal | RPMI-8226 leukemia | HOP-62 NSCLC | A498 renal | HL-60(TB) leukemia | CCRF-CEM leukemia | IGROV1 ovarian | SK-MEL-28 melanoma | LOX IMVI melanoma | SF-268 CNS | OVCAR-8 ovarian | 786-0 renal | MDA-N | MALME-3M melanoma | OVCAR-5 ovarian | MDA-MB-435 | NCI-H522 lung | PC-3 prostate | SNB-19 CNS | OVCAR-4 ovarian | MDA-MB-231 breast | SN12C renal | T-47D breast | HS 578T breast | SK-MEL-5 melanoma | NCI-H23 lung | SF-295 CNS | EKVX NSCLC | MOLT-4 leukemia
